Reference: EP1066315B1 (University of Dundee, priority 1998, dated 2008)
“Also recorded” adds a separate entry of the source. Residues, ends and D or L forms follow the SMILES beside them. *: point of attachment. Fmoc = O=C(OCC1c2ccccc2-c2ccccc21)*; Cbz = O=C(OCc1ccccc1)*; CHN2 = [N-]=[N+]=C*

Experiments:
[1] = target: T1, disrupted lysosomes isolated from the human B cell line EDR (TTCF processing activity) (Homo sapiens, UniProt Q99538); assay: Digestion of TTCF by disrupted B cell lysosomes, SDS-PAGE readout; type: biochemical; conditions: for inhibition of lysosomal digestion of TTCF: inhibitor at 0.1 mg/ml, pH 4.5, 4 hours at 37°C, Fig 1a
T1 construct: disrupted lysosomes isolated from the human B cell line EDR; endogenous in cells; host or cells: human B cell line EDR, Percoll-gradient lysosomal fraction, disrupted
T1 sequence (Q99538 26-323 limits assumed): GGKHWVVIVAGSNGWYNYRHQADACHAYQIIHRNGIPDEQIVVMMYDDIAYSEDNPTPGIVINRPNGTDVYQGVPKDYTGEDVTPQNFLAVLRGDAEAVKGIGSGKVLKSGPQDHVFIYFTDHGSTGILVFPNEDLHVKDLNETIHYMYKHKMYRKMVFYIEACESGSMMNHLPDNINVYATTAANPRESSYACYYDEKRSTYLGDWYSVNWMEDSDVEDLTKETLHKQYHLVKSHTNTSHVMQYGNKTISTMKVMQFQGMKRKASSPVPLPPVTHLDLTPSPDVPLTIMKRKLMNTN
Protocol: The invention will now be described by reference to the following Examples and Figures wherein • Figure 1: Processing of TTCF by a leupeptin-insensitive cysteine endopeptidase activity. (a) TTCF was digested in vitro in the presence of disrupted lysosomes (1-2 µg) in the presence or absence of iodoacetamide (1 mM), leupeptin, E64 or pepstatin (each at 0.1 mg/ml). Digestions were in 0.1 M NH4 acetate at pH 4.5 or Na2HPO4, pH 6.0 or 7.0. After 4 hours at 37°C, the reactions were separated by Tris-tricine SDS-PAGE and stained with Coomassie Blue. (b) Cleavage sites: TTCF digestion products were separated by SDS PAGE and electrophoretically transferred to nitrocellulose membrane. Individual fragments numbered 1-6 were subjected to 5 cycles of Edman degradation. N-terminal sequence obtained is shown in bold following upstream residues from TTCF (tetanus toxin numbering). The N-terminal sequence of His-tagged TTCF was obtained for fragments 1 and 3. (c) Residues Asn 1184 and Glu 1184 in TTCF were mutated to alanine (see Methods) and digestions performed as before. The mutation abolishes cleavage at the mutated site but not at the first site (doublet at 47 kD). In this experiment cleavage of the third site was minimal. • Figure 2: TTCF is processed by an asparaginyl endopeptidase. (a) Chromatography of the TTCF processing activity on Mono-S resin. Fractions eluted by NaCl gradient were incubated with the substrates Z-Ala-Ala-Asn-NHMec or Z-Phe-Arg-NHMec in the presence or absence of E64 (trans-epoxysuccinyl-L-leucylamido-(4-guanidino)butane). […] (b) Fractions as above were incubated with 10 µg TTCF in the presence or absence of E64 for 4 hours at 37°C prior to SDS-PAGE analysis. (c) Each fraction was analysed by SDS-PAGE and Western blotting. Electrophoretically transferred material was probed with an affinity purified antiserum raised against the peptide KGIGSGKVLKSGPQC from human legumain^1. • Figure 3: Peptide inhibitors of AEP block asparaginyl endopeptidase activity and TTCF processing in vitro and in vivo. (a) TTCF was digested with purified AEP (legumain from pig kidney) in the presence or absence of 0.2 mg/ml of the peptides indicated. […] (b) Purified AEP or a crude lysosomal protease mixture were incubated with Z-Ala-Ala-Asn-NHMec, Z-Phe-Arg-NHMec (cathepsins L&B) or Z-Val-Val-Ala NHMec (cathepsin S) in the presence of increasing concentrations of AENK or AEQK. Release of 7-amino-4-methyl coumarin was measured after 10, 20 or 30 minutes. […] At different times the cells were washed, fixed in 0.05 % glutaraldehyde and co-cultured with autologous TTCF specific T cell clones. […] Proteins obtained from commercial sources, as described in the literature or custom peptides were digested with purified pig kidney legumain at pH 5.5 in the presence of 1 mM DTT. […] When present peptide was maintained during antigen pulsing at 1 mg/ml (a) or 2 mg/ml (b). At different times the cells were washed, fixed in 0.05 % glutaraldehyde and antigen presentation measured using proliferation of different autologous TTCF-specific T cell clones. c, AEP pre-processing of TTCF speeds antigen presentation. […] Presentation was measured after 60 minutes of antigen pulsing using EBV B cells.
[…]. […] Nor could we reproduce the lysosomal TTCF digestion pattern or indeed generate any of these fragments using purified cathepsins L, S, B, D or E , all of which have been implicated in the class II MHC antigen processing pathway (reviewed in refs 5 & 6).
TTCF processing activity. Lysosomal fractions from the human B cell line EDR were prepared on 27 % Percoll density gradients as previously described^8 using ^125I-labelled transferrin (internalised for 30 minutes at 37°C) and β-hexosaminidase to identify endosomal/plasma membrane and lysosomal fractions respectively. The peak of lysosomes was collected by centrifugation at 40,000 g for 1 hour, removed from the underlying Percoll pellet, collected again at 50,000 g for 1 hour and stored frozen. […]

[2] = tested on: purified AEP (legumain from pig kidney); assay: Digestion of TTCF with purified AEP in the presence of tetrapeptides; type: biochemical; conditions: 0.2 mg/ml peptide; Fig 3a
Protocol: The invention will now be described by reference to the following Examples and Figures wherein • Figure 1: Processing of TTCF by a leupeptin-insensitive cysteine endopeptidase activity. (a) TTCF was digested in vitro in the presence of disrupted lysosomes (1-2 µg) in the presence or absence of iodoacetamide (1 mM), leupeptin, E64 or pepstatin (each at 0.1 mg/ml). Digestions were in 0.1 M NH4 acetate at pH 4.5 or Na2HPO4, pH 6.0 or 7.0. After 4 hours at 37°C, the reactions were separated by Tris-tricine SDS-PAGE and stained with Coomassie Blue. (b) Cleavage sites: TTCF digestion products were separated by SDS PAGE and electrophoretically transferred to nitrocellulose membrane. Individual fragments numbered 1-6 were subjected to 5 cycles of Edman degradation. N-terminal sequence obtained is shown in bold following upstream residues from TTCF (tetanus toxin numbering). The N-terminal sequence of His-tagged TTCF was obtained for fragments 1 and 3. (c) Residues Asn 1184 and Glu 1184 in TTCF were mutated to alanine (see Methods) and digestions performed as before. The mutation abolishes cleavage at the mutated site but not at the first site (doublet at 47 kD). In this experiment cleavage of the third site was minimal. • Figure 2: TTCF is processed by an asparaginyl endopeptidase. (a) Chromatography of the TTCF processing activity on Mono-S resin. Fractions eluted by NaCl gradient were incubated with the substrates Z-Ala-Ala-Asn-NHMec or Z-Phe-Arg-NHMec in the presence or absence of E64 (trans-epoxysuccinyl-L-leucylamido-(4-guanidino)butane). […] (b) Fractions as above were incubated with 10 µg TTCF in the presence or absence of E64 for 4 hours at 37°C prior to SDS-PAGE analysis. (c) Each fraction was analysed by SDS-PAGE and Western blotting. Electrophoretically transferred material was probed with an affinity purified antiserum raised against the peptide KGIGSGKVLKSGPQC from human legumain^1. • Figure 3: Peptide inhibitors of AEP block asparaginyl endopeptidase activity and TTCF processing in vitro and in vivo. […] Release of 7-amino-4-methyl coumarin was measured after 10, 20 or 30 minutes. […] At different times the cells were washed, fixed in 0.05 % glutaraldehyde and antigen presentation measured using proliferation of different autologous TTCF-specific T cell clones. c, AEP pre-processing of TTCF speeds antigen presentation. […] Presentation was measured after 60 minutes of antigen pulsing using EBV B cells.
We decided to test the possibility that high concentrations of asparagine containing peptides might act as competitive inhibitors. […] To establish that inhibition of AEP was specific, we measured the hydrolysis of different synthetic peptide substrates in the presence and absence of these tetrapeptides.

[3] = B cell lysosomal fractions (crude lysosomal protease mixture); conditions: human, up to 30 minutes
[4] = target: T2, TTCF processing activity (Homo sapiens, UniProt Q99538); assay: TTCF processing by Mono-S fractions of B cell lysosome extract; type: biochemical; conditions: 10 µg TTCF, 4 hours at 37°C, Fig 2b
T2 construct: We next partially purified the TTCF processing activity from a crude B cell lysosome fraction; endogenous in cells; host or cells: human B cell line EDR; membrane pellet solubilised in citrate/CHAPS, Mono-S cation-exchange fractions
T2 sequence (Q99538 26-323 limits assumed): T1 sequence (Q99538 26-323 limits assumed)
Protocol: (§1) The invention will now be described by reference to the following Examples and Figures wherein • Figure 1: Processing of TTCF by a leupeptin-insensitive cysteine endopeptidase activity. (a) TTCF was digested in vitro in the presence of disrupted lysosomes (1-2 µg) in the presence or absence of iodoacetamide (1 mM), leupeptin, E64 or pepstatin (each at 0.1 mg/ml). Digestions were in 0.1 M NH4 acetate at pH 4.5 or Na2HPO4, pH 6.0 or 7.0. After 4 hours at 37°C, the reactions were separated by Tris-tricine SDS-PAGE and stained with Coomassie Blue. (b) Cleavage sites: TTCF digestion products were separated by SDS PAGE and electrophoretically transferred to nitrocellulose membrane. Individual fragments numbered 1-6 were subjected to 5 cycles of Edman degradation. N-terminal sequence obtained is shown in bold following upstream residues from TTCF (tetanus toxin numbering). […] (c) Each fraction was analysed by SDS-PAGE and Western blotting. […] Release of 7-amino-4-methyl coumarin was measured after 10, 20 or 30 minutes. […] At different times the cells were washed, fixed in 0.05 % glutaraldehyde and antigen presentation measured using proliferation of different autologous TTCF-specific T cell clones. c, AEP pre-processing of TTCF speeds antigen presentation. […] Presentation was measured after 60 minutes of antigen pulsing using EBV B cells. […]

[5] = target: T3, asparaginyl endopeptidase activity (Homo sapiens, UniProt Q99538); assay: Cleavage of Z-Ala-Ala-Asn-NHMec by Mono-S fractions of B cell lysosome extract; type: biochemical; conditions: presence or absence of E64
T3 construct: We next partially purified the TTCF processing activity from a crude B cell lysosome fraction; endogenous in cells; host or cells: human B cell line EDR; membrane pellet solubilised in citrate/CHAPS, Mono-S cation-exchange fractions
T3 sequence (Q99538 26-323 limits assumed): T1 sequence (Q99538 26-323 limits assumed)
Protocol: as §1

[6] = tested on: cathepsin L and/or B; assay: Cleavage of Z-Phe-Arg-NHMec by Mono-S fractions of B cell lysosome extract; type: biochemical, human; conditions: presence or absence of E64, Fig 2a
Protocol: as §1

[7] = crude lysosomal protease mixture (B cell lysosomal fractions); conditions: human, up to 30 minutes

CC(C)C[C@H](NC(=O)N1CCOCC1)C(=O)N[C@H](/C=C/S(=O)(=O)c1ccccc1)CCc1ccccc1 [LHVS]
effect on lysosomal TTCF digestion activity ([1]; concentration not given, data not shown): without effect

CC(=O)N[C@@H](CC(C)C)C(=O)N[C@@H](CC(C)C)C(=O)N[C@H](C=O)CCCNC(=N)N [leupeptin, acetyl-leucyl-leucyl-arginal]
inhibition of lysosomal digestion of TTCF [1]: could not inhibit; also recorded: completely resistant

NCCCC[C@H](NC(=O)OCC1c2ccccc2-c2ccccc21)C(=O)N[C@@H](CC(N)=O)C(=O)N[C@@H](CC(N)=O)C(=O)N[C@@H](CCC(=O)O)C(N)=O [KNNE, Lys-Asn-Asn-Glu-NH] (Fmoc-KNNE-NH2)
inhibition of processing of TTCF by AEP [2]: also inhibited but was less effective

[N-]=[N+]=CC(=O)[C@H](Cc1ccccc1)NC(=O)[C@H](Cc1ccccc1)NC(=O)OCc1ccccc1 [Z-Phe-Phe-CHN2] (Cbz-Phe-Phe-CHN2)
sensitivity of lysosomal TTCF digestion activity to inhibitor ([1]; high concentrations, data not shown): sensitive

Z-Val-Ala-Asn-NHMec
cleaved bond [3]: Asn-NHMec

NCCCC[C@H](NC(=O)OCC1c2ccccc2-c2ccccc21)C(=O)N[C@@H](CCC(N)=O)C(=O)N[C@@H](CCC(N)=O)C(=O)N[C@@H](CCC(=O)O)C(N)=O [KQQE] (Fmoc-KQQE-NH2)
inhibition of processing of TTCF by AEP [2]: did not inhibit

CC(C)C[C@H](NC(=O)[C@H]1O[C@@H]1C(=O)O)C(=O)NCCCCNC(=N)N [E64, trans-epoxysuccinyl-L-leucylamido-(4-guanidino)butane]
effect on TTCF processing activity [4]: unaffected | effect on cleavage of Z-Ala-Ala-Asn-NHMec [5]: no inhibitory effect; also recorded: unaffected | inhibition of lysosomal digestion of TTCF [1]: could not inhibit | inhibition of activity cleaving Z-Phe-Arg-NHMec [6]: completely inhibited

Z-Phe-Arg-NHMec
cleaved bond [3]: Arg-NHMec | cleaved bond [7]: Arg-NHMec
